Experimental data reported in PMC4764977, “AZD8797 is an allosteric non-competitive modulator of the human CX3CR1 receptor” (Biochemical Journal, 2016).
Where “and” joins values, the source holds several entries; their conditions need not be identical. Identical values can stand only once.

Assays:
[1] = biological target: T1, CX3CR1 (RPMI-8226 cells endogenously expressing human CX3CR1) (Homo sapiens, UniProt P49238); assay: Cellix flow adhesion of RPMI-8226 cells to full-length CX3CL1; type: cell-based; conditions: flow 0.5 dyn·cm^−2, 15 min pre-incubation, n=3; read-out: IC50, prevention of capture (adhesion) of RPMI-8226 cells to CX3CL1
T1 construct: RPMI-8226 cells, a human B-lymphocyte cell line endogenously expressing human CX3CR1; CCL-155; host or cells: RPMI-8226
T1 sequence (P49238 1-355): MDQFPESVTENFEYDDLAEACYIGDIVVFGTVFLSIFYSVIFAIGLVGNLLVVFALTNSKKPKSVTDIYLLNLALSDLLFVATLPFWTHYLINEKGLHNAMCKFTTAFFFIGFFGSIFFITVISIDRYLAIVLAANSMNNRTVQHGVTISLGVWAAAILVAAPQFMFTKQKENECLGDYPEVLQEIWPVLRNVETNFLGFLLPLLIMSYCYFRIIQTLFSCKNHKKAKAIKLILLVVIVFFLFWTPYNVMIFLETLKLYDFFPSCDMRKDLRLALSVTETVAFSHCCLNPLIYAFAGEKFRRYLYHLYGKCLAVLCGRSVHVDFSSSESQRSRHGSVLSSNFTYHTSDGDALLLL
Experimental: Adhesion of a human B-lymphocyte cell line (RPMI-8226) or hWB leucocytes to full-length human CX3CL1 were monitored using a microfluidics Cellix VenaFlux platform and Vena 8 Biochips (Cellix). Each channel on the Vena 8 chip was coated with anti-His monoclonal antibody (R&D Systems) followed by His-tagged full-length CX3CL1 (R&D Systems) and blocked for non-specific binding (NSB) with BSA.
Cell preparations: RPMI-8226 cells were cultured in RPMI 1640 medium with GlutaMAX and 20% FBS (HyClone, Perbio). Before the experiment, cells were centrifuged at 320 g and resuspended to 5 ×10^6 cells·ml^−1 in RPMI 1640 with 1% FBS. hWB with heparin as anti-coagulant was collected from healthy donors and 5 μM DiOC6 was added. AZD8797 was diluted in a 3-fold series in DMSO starting at 3.3 or 30 μM and pre-incubated with RPMI-8226 cells for 15 min or whole blood for 60 min. DMSO concentration held constant for all AZD8797 concentrations (0.1% for the RPMI-8226 experiments and 0.3% for the whole blood experiments). […]
RPMI-8226 cells in RPMI 1640+1% FBS or whole blood were pumped through the channels at 0.5 dyn·cm^−2 and 2.25 dyn·cm^−2 respectively, for 3 min. Images for quantification were captured using a microscope. Cells adhering to channels were counted and the mean values across five images in each channel were used for calculating the concentration–response curves.

CX3CR1 [2] = biological target: T2, CX3CR1 (Homo sapiens, UniProt P49238); assay: 125I-CX3CL1 competition assay, HEK293 cells co-transfected with Gqi5-protein (Karlstrom et al.); type: binding; design: host or cells: CHO-K1; conditions: HEK293 Gqi5 vs CHO-hCX3CR1 membranes
T2 sequence (P49238 1-355): T1 sequence (P49238 1-355)

CX3CR1 [3] = biological target: T2, CX3CR1; assay: Equilibrium saturation binding, CHO-hCX3CR1 membranes; design: host or cells: CHO-K1
Experimental: Cells were washed in PBS and lysed with an Ultra-Turrax Homogenizer in 50 mM Tris/HCl (pH 7.4) and 1 mM EDTA with Complete™ protease inhibitor (Roche). […] Protein concentration was determined using the BCA method (Thermo Fisher Scientific). […] The filter plate was washed in ice-cold 25 mM HEPES (pH 7.4), 5 mM MgCl2, 1 mM CaCl2 and 500 mM NaCl and dried at 50°C for 1 h. Scintillation cocktail, Optiphase Supermix (PerkinElmer) was added to each well and the radioactivity was measured using a MicroBeta Trilux reader (PerkinElmer). […] The DMSO concentration was held constant at 1%. where Kd is the radioligand dissociation constant. Saturation binding isotherms were analysed by non-linear regression and globally fitted to a hyperbolic one-site binding model taking into account both NSB and total binding to calculate the total receptor number (Bmax) and radioligand dissociation constant (Kd): […] NSB=NS·X+Background, where NS is the concentration-dependent NSB. To visualize the manner of binding of CX3CL1 and AZD8797, a diagnostic affinity ratio plot designed to compare strictly competitive behaviour with allosteric interactions was used. […] For single site competitive interactions, the resulting linear plot has the slope of 1.0. For allosteric but competitive interactions, the slope will start at 1.0 but progressively deviate from unity, eventually reaching a limit governed by the allosteric ternary complex model co-operativity factor α [21, 22].

CX3CR1 [4] = biological target: T2, CX3CR1; assay: Dynamic mass redistribution (DMR), CHO-hCX3CR1 cells; type: cell-based; design: host or cells: CHO-K1
Experimental: CHO-hCX3CR1 cells were seeded at 12000 cells per well in DMEM with 10% FBS and RPMI-8226 cells at 8000 cells per well in RPMI 1640 medium with GlutaMAX and 20% FBS on 384-well fibronectin-coated EPIC™ biosensor plates (Corning) and cultured at 37°C for 24 h. At 18–24 h prior to compound treatment, the medium was replaced with serum-free medium with or without 100 ng·ml^−1 PTX. Cells were then washed with assay buffer (HBSS, 20 mM HEPES (pH 7.4) and 0.01% BSA) and allowed to equilibrate at 26°C for 1 h inside the EPIC™ plate reader. Following equilibration, a baseline scan was performed before adding AZD8797 or CX3CL1 using a CyBi-Well vario (CyBio). Dynamic mass redistribution (DMR) was then measured during a 60 min scan. As in the [^35S]GTPγS binding assay, the final DMSO concentration was held constant at 1%.

CX3CR1 [5] = biological target: T2, CX3CR1; design: method as in PMID 23516963; conditions: HEK293 cells co-transfected with Gqi5-protein; read-out: Ki, 125I-CX3CL1 competition assay; cited from earlier work
CX3CR1 [6] = system: CX3CR1; design: method as in PMID 24706865; conditions: cited from earlier work
[7] = system: untransfected CHO-K1 cells; assay: Dynamic mass redistribution (DMR), untransfected CHO-K1 cells; type: cell-based, Chinese hamster
[8] = increasing concentrations of unlabelled compound

Compound: CC(C)C[C@H](CO)Nc1nc(S[C@@H](C)c2ccccc2)nc2nc(N)sc12 [AZD8797]
- IC50 [1]: 6 nM and 5.8 nM
- Higher affinity than in this paper's 125I-CX3CL1 competition assay (CX3CR1 [2]): ~100 fold
- Effect on Bmax of 125I-CX3CL1 saturation binding (CX3CR1 [3]; [8]): decreased
- Effect on Kd of 125I-CX3CL1 saturation binding (CX3CR1 [3]; [8]): without any effect
- Kd (CX3CR1 [3]; one-site model, n=4): 12 nM
- Concentration needed for agonist response vs concentration needed to block CX3CL1 binding and functional response in membranes (CX3CR1 [4]; CHO-hCX3CR1 cells vs purified membranes): more than 10 fold
- Effect of PTX treatment on DMR signal (CX3CR1 [4]; CHO-hCX3CR1 cells, 100 ng·ml^−1 PTX): reduced
- Maximum effect, DMR (CX3CR1 [4]; CHO-hCX3CR1 cells, compound alone, no plateau, n=3): 79 % of CX3CL1
- EC50 (CX3CR1 [4]; CHO-hCX3CR1 cells, compound alone, no plateau, n=3, read-out: Potency, DMR agonism): > 5000 nM
- Antagonist response in DMR (CX3CR1 [4]; challenging EC80 of CX3CL1 with different concentrations, cell line not specified, results not shown): could not measure any antagonist response
- Ki (CX3CR1 [5]): 4 nM
- Efficacy in rat model for multiple sclerosis (CX3CR1 [6]): efficacy
- DMR response in untransfected cells [7]: 38 % of AZD8797 effect in transfected cells
- DMR response in untransfected cells (words) [7]: only weakly responded
